Our source for the MIC values is US20140120595A1 (priority 2008, published 2014).

Converted amounts (≈) assume the structure as drawn.

The subject of this assay is E. coli K12. Put plainly: microbe, parasite or virus in culture. The conditions noted are these: Escherichia coli, K12, 24 h, read-out: minimum inhibitory concentration (MIC).

Method: Overnight cultures of E. coli K12 were started in 5 mL LB containing no antibiotic 12-16 hours before the experiment was performed. LB broth was inoculated using aseptic technique. The culture was incubated overnight in a shaking incubator at 37 C.
The next morning 10 mL of M9 was inoculated with 100 μL of cells from the overnight culture. The tube was inverted to mix the cells prior to incubation at 37 C in the shaking incubator. While the cells were growing 96 well plates were prepared for inoculation.
A solution of concentrated M9 was made by combining 4 mL of 5×M9 salts, 40 μL of 20% glucose, 40 μL 1M MgSO4, and 2 μL of 1M CaCl2.
The plate was loaded as follows: 45 μL of concentrated M9 mixture was added to each well containing the compound concentrations and the following dilutions were performed:
Controls were prepared and loaded onto the plate as follows: 135 μL of H2O was added to positive control wells. 45 μL of the concentrated M9 mixture was added to each positive control well. 200 μL of water was added to each negative control well.
The OD600 of the cells from the overnight culture that was inoculated into M9 was checked using the spectrophotometer. The final OD600 of the cells was between 0.195 and 0.200. To achieve a final OD within this range the spectrophotometer was blanked with water. […]

As to `OCCCCO` [1,4-BDO, 1,4-butanediol], the MIC stood at 50 mg/mL (≈ 555 mM).
